Assay results from ChEMBL document CHEMBL3044741, “Synthesis of novel biologically active methylene derivatives of sydnones” (Med Chem Res, 2013).
In brackets after ≈: the same amount, converted by molar mass.

How the values were obtained:
MOLT-4 = assay: Cytotoxicity against human MOLT4 assessed as cell growth at high concentration; format: functional
Escherichia coli [1] = assay: Antibacterial activity against Escherichia coli MTCC 443 at 250 ug/ml after 24 hrs by Kirby-Bauer method; format: functional; details: MTCC 443, 24 h, read-out: IZ
[2] = Cytotoxicity against human HEL cells assessed as alteration in cell morphology; format: cell-based
T47D = assay: Cytotoxicity against human T47D assessed as cell growth at high concentration; format: functional
OVCAR-3 = assay: Cytotoxicity against human OVCAR3 assessed as cell growth at high concentration; format: functional
Streptococcus pyogenes [3] = assay: Antibacterial activity against Streptococcus pyogenes MTCC 442 at 250 ug/ml after 24 hrs by Kirby-Bauer method; format: functional; details: MTCC 442, 24 h, read-out: IZ
NCI-H460 = assay: Cytotoxicity against human NCI-H460 assessed as cell growth at high concentration; format: functional
Malme-3M = assay: Cytotoxicity against human MALME-3M assessed as cell growth at high concentration; format: functional
MDA-MB-231 = assay: Cytotoxicity against human MDA-MB-231 assessed as cell growth at high concentration; format: functional
ACHN = assay: Cytotoxicity against human ACHN assessed as cell growth at high concentration; format: functional
CAKI-1 = assay: Cytotoxicity against human Caki1 assessed as cell growth at high concentration; format: functional
Escherichia coli [4] = assay: Antibacterial activity against Escherichia coli MTCC 443 after 24 hrs by broth dilution method; format: functional; details: MTCC 443, 24 h
SW-620 = assay: Cytotoxicity against human SW620 assessed as cell growth at high concentration; format: functional
786-0 = assay: Cytotoxicity against human 786-0 assessed as cell growth at high concentration; format: functional
Pseudomonas aeruginosa = assay: Antibacterial activity against Pseudomonas aeruginosa MTCC 424 at 250 ug/ml after 24 hrs by Kirby-Bauer method; format: functional; details: MTCC 424, 24 h, read-out: IZ
Aspergillus clavatus [5] = assay: Antifungal activity against Aspergillus clavatus MTCC 1323; format: functional
NCI-H226 = assay: Cytotoxicity against human NCI-H226 assessed as cell growth at high concentration; format: functional
MDA-MB-468 = assay: Cytotoxicity against human MDA-MB-468 assessed as cell growth at high concentration; format: functional
A549 = assay: Cytotoxicity against human A549 assessed as cell growth at high concentration; format: functional
SK-MEL-2 = assay: Cytotoxicity against human SK-MEL-2 assessed as cell growth at high concentration; format: functional
OVCAR-4 = assay: Cytotoxicity against human OVCAR4 assessed as cell growth at high concentration; format: functional
Hs-578T = assay: Cytotoxicity against human Hs 578T assessed as cell growth at high concentration; format: functional
[6] = Selectivity index, ratio of CC50 for human MT4 cells to IC50 for HIV2 ROD; format: functional
CCRF-CEM = assay: Cytotoxicity against human CCRF-CEM assessed as cell growth at high concentration; format: functional
TK-10 = assay: Cytotoxicity against human TK10 assessed as cell growth at high concentration; format: functional
OVCAR-8 = assay: Cytotoxicity against human OVCAR8 assessed as cell growth at high concentration; format: functional
[7] = Cytotoxicity against human MT4 cells by MTT assay; format: cell-based
SK-MEL-5 = assay: Cytotoxicity against human SK-MEL-5 assessed as cell growth at high concentration; format: functional
UACC-257 = assay: Cytotoxicity against human UACC257 assessed as cell growth at high concentration; format: functional
Candida albicans [8] = assay: Antifungal activity against Candida albicans MTCC 227; format: functional
BT-549 = assay: Cytotoxicity against human BT549 assessed as cell growth at high concentration; format: functional
SF-268 = assay: Cytotoxicity against human SF268 assessed as cell growth at high concentration; format: functional
K562 = assay: Cytotoxicity against human K562 assessed as cell growth at high concentration; format: functional
NCI-H23 = assay: Cytotoxicity against human NCI-H23 assessed as cell growth at high concentration; format: functional
HCT-116 = assay: Cytotoxicity against human HCT116 assessed as cell growth at high concentration; format: functional
HOP-62 = assay: Cytotoxicity against human HOP62 assessed as cell growth at high concentration; format: functional
LOX IMVI = assay: Cytotoxicity against human LOXIMVI assessed as cell growth at high concentration; format: functional
Candida albicans [9] = assay: Antifungal activity against Candida albicans MTCC 227 at 250 ug/ml after 74 hrs by Kirby-Bauer method; format: functional; details: MTCC 227, 74 h, read-out: IZ
Cytomegalovirus = assay: Antiviral activity against Cytomegalovirus Davis in HEL cells assessed as reduction in plaque formation; format: functional, organism-based; details: Human betaherpesvirus 5, Davis
M14 = assay: Cytotoxicity against human M14 assessed as cell growth at high concentration; format: functional
Streptococcus pyogenes [10] = assay: Antibacterial activity against Streptococcus pyogenes MTCC 442 after 24 hrs by broth dilution method; format: functional; details: MTCC 442, 24 h
[11] = Cytotoxicity against human NCI-ADR-RES assessed as cell growth at high concentration; format: functional
PC-3 = assay: Cytotoxicity against human PC3 assessed as cell growth at high concentration; format: functional
SNB-75 = assay: Cytotoxicity against human SNB75 assessed as cell growth at high concentration; format: functional
SNB-19 = assay: Cytotoxicity against human SNB19 assessed as cell growth at high concentration; format: functional
COLO 205 = assay: Cytotoxicity against human COLO205 assessed as cell growth at high concentration; format: functional
[12] = Selectivity index, ratio of CC50 for human MT4 cells to IC50 for HIV1 3B; format: functional
A498 = assay: Cytotoxicity against human A498 assessed as cell growth at high concentration; format: functional
DU-145 = assay: Cytotoxicity against human DU145 assessed as cell growth at high concentration; format: functional
Staphylococcus aureus = assay: Antibacterial activity against Staphylococcus aureus MTCC 96 at 250 ug/ml after 24 hrs by Kirby-Bauer method; format: functional; details: MTCC 96, 24 h, read-out: IZ
EKVX = assay: Cytotoxicity against human EKVX assessed as cell growth at high concentration; format: functional
Human alphaherpesvirus 3 = assay: Antiviral activity against thymidine kinase-deficient Varicella-zoster virus infected in HEL cells assessed as reduction in plaque formation; format: functional, organism-based; details: Human alphaherpesvirus 3, HEL
Aspergillus clavatus [13] = assay: Antifungal activity against Aspergillus clavatus MTCC 1323 at 250 ug/ml after 74 hrs by Kirby-Bauer method; format: functional; details: MTCC 1323, 74 h, read-out: IZ
UACC-62 = assay: Cytotoxicity against human UACC62 assessed as cell growth at high concentration; format: functional
SN12C = assay: Cytotoxicity against human SN12C assessed as cell growth at high concentration; format: functional
SK-MEL-28 = assay: Cytotoxicity against human SK-MEL-28 assessed as cell growth at high concentration; format: functional
SF-539 = assay: Cytotoxicity against human SF539 assessed as cell growth at high concentration; format: functional

Work on `Cc1ccc(-[n+]2noc([O-])c2CN2CCNCC2)cc1` yielded an Activity (MOLT-4) of 117.17%, a zone of inhibition at 250 µg/mL (Escherichia coli [1]) of 21 mm and an MCC [2] of 100 µg/mL. It also gave an Activity (T47D) of 106.04%, an Activity (OVCAR-3) of 101.12% and a zone of inhibition at 250 µg/mL (Streptococcus pyogenes [3]) of 17 mm. It also gave an Activity (NCI-H460) of 95.72%, an Activity (Malme-3M) of 109.79% and an Activity (MDA-MB-231) of 86.16%. It also gave an Activity (ACHN) of 92.05%, an Activity (CAKI-1) of 91.35% and an MIC (Escherichia coli [4]) of 100 µg/mL (≈ 365 µM). For the same molecule, the Activity (SW-620) was 96.29%, the Activity (786-0) was 105.96% and the zone of inhibition at 250 µg/mL (Pseudomonas aeruginosa) was 23 mm. For the same molecule, the MIC (Aspergillus clavatus [5]) was 200 µg/mL (≈ 729 µM), the Activity (NCI-H226) was 84.85% and the Activity (MDA-MB-468) was 101.9%. The Activity (A549) was 99.61%, the Activity (SK-MEL-2) was 114.56% and the Activity (OVCAR-4) was 114.7%. The Activity (Hs-578T) was 101.05%, the “Ratio CC50/IC50” value [6] was under 1 and the Activity (CCRF-CEM) was 102.79%. For the same molecule, the Activity (TK-10) was 102.68%, the Activity (OVCAR-8) was 104.3% and the CC50 [7] was 32.6 µg/mL (≈ 119 µM). The Activity (SK-MEL-5) was 100.25%, the Activity (UACC-257) was 96.41% and the MIC (Candida albicans [8]) was 200 µg/mL (≈ 729 µM). It also gave an Activity (BT-549) of 110.58%, an Activity (SF-268) of 95.92% and an Activity (K562) of 120.22%. For the same molecule, the Activity (NCI-H23) was 101.63%, the Activity (HCT-116) was 108.38% and the Activity (HOP-62) was 90.65%. It also gave an Activity (LOX IMVI) of 92.56%, a zone of inhibition at 250 µg/mL (Candida albicans [9]) of 21 mm and an EC50 (Cytomegalovirus) of over 20 µg/mL. For the same molecule, the Activity (M14) was 105.86%, the MIC (Streptococcus pyogenes [10]) was 500 µg/mL (≈ 1820 µM) and the Activity [11] was 99.62%. For the same molecule, the Activity (PC-3) was 88.56%, the Activity (SNB-75) was 145.71% and the Activity (SNB-19) was 103.47%. For the same molecule, the Activity (COLO 205) was 99.98%, the “Ratio CC50/IC50” value [12] was under 1 and the Activity (A498) was 91.02%. It also gave an Activity (DU-145) of 102.16%, a zone of inhibition at 250 µg/mL (Staphylococcus aureus) of 17 mm and an Activity (EKVX) of 104.33%. The EC50 (Human alphaherpesvirus 3) was over 20 µg/mL, the zone of inhibition at 250 µg/mL (Aspergillus clavatus [13]) was 24 mm and the Activity (UACC-62) was 93.66%. For the same molecule, the Activity (SN12C) was 91.43%, the Activity (SK-MEL-28) was 105.58% and the Activity (SF-539) was 101.2%.
`Cc1ccc(-[n+]2noc([O-])c2CN2CCN(c3cccc(Cl)c3)CC2)cc1` showed an Activity (MOLT-4) of 88.5%, a zone of inhibition at 250 µg/mL (Escherichia coli [1]) of 22 mm and an MCC [2] of 100 µg/mL. The Activity (T47D) was 72.96%, the Activity (OVCAR-3) was 88.44% and the zone of inhibition at 250 µg/mL (Streptococcus pyogenes [3]) was 20 mm. It also gave an Activity (NCI-H460) of 89.39%, an Activity (Malme-3M) of 95.22% and an Activity (MDA-MB-231) of 75.33%. The Activity (ACHN) was 87.78%, the Activity (CAKI-1) was 86.38% and the MIC (Escherichia coli [4]) was 100 µg/mL (≈ 260 µM). The Activity (SW-620) was 92.74%, the Activity (786-0) was 101.4% and the zone of inhibition at 250 µg/mL (Pseudomonas aeruginosa) was 21 mm. It also gave an MIC (Aspergillus clavatus [5]) of 200 µg/mL (≈ 520 µM), an Activity (NCI-H226) of 79.22% and an Activity (MDA-MB-468) of 80.15%. It also gave an Activity (A549) of 96.53%, an Activity (SK-MEL-2) of 108.26% and an Activity (OVCAR-4) of 89.31%. For the same molecule, the Activity (Hs-578T) was 92.29%, the “Ratio CC50/IC50” value [6] was under 1 and the Activity (CCRF-CEM) was 72.82%. It also gave an Activity (TK-10) of 119.81%, an Activity (OVCAR-8) of 94.91% and a CC50 [7] of 27.4 µg/mL (≈ 71.3 µM). For the same molecule, the Activity (SK-MEL-5) was 95.3%, the Activity (UACC-257) was 93.49% and the MIC (Candida albicans [8]) was 200 µg/mL (≈ 520 µM). It also gave an Activity (BT-549) of 98.47%, an Activity (SF-268) of 88.36% and an Activity (K562) of 53.83%. It also gave an Activity (NCI-H23) of 95.83%, an Activity (HCT-116) of 82.24% and an Activity (HOP-62) of 86.8%. It also gave an Activity (LOX IMVI) of 99.09%, a zone of inhibition at 250 µg/mL (Candida albicans [9]) of 21 mm and an EC50 (Cytomegalovirus) of over 20 µg/mL. For the same molecule, the Activity (M14) was 107.94%, the MIC (Streptococcus pyogenes [10]) was 125 µg/mL (≈ 325 µM) and the Activity [11] was 97.44%. For the same molecule, the Activity (PC-3) was 70.26%, the Activity (SNB-75) was 99.33% and the Activity (SNB-19) was 99.85%. For the same molecule, the Activity (COLO 205) was 89.45%, the “Ratio CC50/IC50” value [12] was under 1 and the Activity (A498) was 51.7%. It also gave an Activity (DU-145) of 95.5%, a zone of inhibition at 250 µg/mL (Staphylococcus aureus) of 22 mm and an Activity (EKVX) of 88.38%. It also gave an EC50 (Human alphaherpesvirus 3) of over 20 µg/mL, a zone of inhibition at 250 µg/mL (Aspergillus clavatus [13]) of 24 mm and an Activity (UACC-62) of 82.63%. For the same molecule, the Activity (SN12C) was 87.71%, the Activity (SK-MEL-28) was 98.44% and the Activity (SF-539) was 92.15%.
